According to ChEMBL document CHEMBL6134898, “In Vitro ADME Profiling of PROTACs: Successes, Challenges, and Lessons Learned from Analysis of Clinical PROTACs from a Diverse Physicochemical Space” (J Med Chem, 2025):
In brackets after ≈: the same amount, converted by molar mass.

Columns and labels:
[1] = Blood to plasma partitioning ratio in dog at 10 uM incubated for 30 mins by LC-MS/MS analysis; assay type: ADME, cell-free, Canis lupus familiaris; conditions: whole blood
[2] = Lipophilicity, LogD of compound by Chromatography; assay type: physicochemical
[3] = Protein binding in rat plasma assessed as free fraction at 5 uM incubated for 18 hrs by LC-MS/MS analysis; assay type: ADME, cell-free
[4] = Protein binding in dog plasma assessed as free fraction at 5 uM incubated for 18 hrs by LC-MS/MS analysis; assay type: ADME, cell-free, Canis lupus familiaris
[5] = Solubility of compound in FeSSIF at pH 5 measured after 24 hrs by UPLC analysis; assay type: physicochemical
[6] = Intrinsic clearance in rat hepatocytes measured per million cells at 1 uM measured for 0.5 to 120 mins by LC-MS/MS analysis; assay type: ADME, cell-based, Hepatocyte; conditions: time 0.5-120 min, read-out: CLH
[7] = Intrinsic clearance in monkey hepatocytes measured per million cells at 1 uM measured for 0.5 to 120 mins by LC-MS/MS analysis; assay type: ADME, cell-based, Macaca mulatta, Hepatocyte; conditions: rhesus monkey, time 0.5-120 min, read-out: CLH
[8] = Apparent permeability across apical to basal side in human Caco-2 cells at 1 uM incubated for 120 mins followed by ACN addition by LC-MS/MS analysis; assay type: ADME, cell-based
[9] = Blood to plasma partitioning ratio in rat at 10 uM incubated for 30 mins by LC-MS/MS analysis; assay type: ADME, cell-free; conditions: whole blood
[10] = Solubility of compound in FaSSIF at pH 6.5 measured after 24 hrs by UPLC analysis; assay type: physicochemical
[11] = Intrinsic clearance in mouse hepatocytes measured per million cells at 1 uM measured for 0.5 to 120 mins by LC-MS/MS analysis; assay type: ADME, cell-based, Hepatocyte; conditions: time 0.5-120 min, read-out: CLH
[12] = Protein binding in human plasma assessed as compound recovery at 5 uM incubated for 18 hrs by LC-MS/MS analysis; assay type: ADME, cell-free; conditions: read-out: Drug recovery
[13] = Protein binding in rat hepatocytes assessed as free fraction at 5 uM incubated for 18 hrs by LC-MS/MS analysis; assay type: ADME, cell-based, Hepatocyte
[14] = Protein binding in human plasma assessed as free fraction at 5 uM incubated for 18 hrs by LC-MS/MS analysis; assay type: ADME, cell-free
[15] = Blood to plasma partitioning ratio in human at 10 uM incubated for 30 mins by LC-MS/MS analysis; assay type: ADME, cell-free; conditions: whole blood
[16] = Solubility of compound in SGF at pH 1.2 measured after 24 hrs by UPLC analysis; assay type: physicochemical
[17] = Stability in human plasma at 5 uM incubated for 18 hrs by LC-MS/MS analysis; assay type: ADME, cell-free; conditions: read-out: Stability
[18] = Intrinsic clearance in dog hepatocytes measured per million cells at 1 uM measured for 0.5 to 120 mins by LC-MS/MS analysis; assay type: ADME, cell-based, Canis lupus familiaris, Hepatocyte; conditions: time 0.5-120 min, read-out: CLH
[19] = Intrinsic clearance in human hepatocytes measured per million cells at 1 uM measured for 0.5 to 120 mins by LC-MS/MS analysis; assay type: ADME, cell-based, Hepatocyte; conditions: time 0.5-120 min, read-out: CLH
[20] = Apparent permeability across apical to basal side in human Caco-2 cells at 1 uM incubated for 120 mins by LC-MS/MS analysis; assay type: ADME, cell-based
[21] = Protein binding in monkey plasma assessed as free fraction at 5 uM incubated for 18 hrs by LC-MS/MS analysis; assay type: ADME, cell-free, Macaca mulatta; conditions: rhesus monkey
[22] = Protein binding in mouse plasma assessed as free fraction at 5 uM incubated for 18 hrs by LC-MS/MS analysis; assay type: ADME, cell-free

| blood plasma ratio at 0.5 h, 10 µM [1] | chromatographic logD [2] | fraction unbound at 18 h, 5 µM [3] | fraction unbound at 18 h, 5 µM [4] | solubility at 24 h [5] [µg/mL] | hepatocyte CLint at 1 µM [6] [µL/min/1e6 cells] | hepatocyte CLint at 1 µM [7] [µL/min/1e6 cells] | Papp A→B at 2 h, 1 µM [8] [×10⁻⁶ cm/s] | blood plasma ratio at 0.5 h, 10 µM [9] | hepatocyte CLint at 1 µM [11] [µL/min/1e6 cells] | recovery at 18 h, 5 µM [12] [%] | fraction unbound at 18 h, 5 µM [13] | fraction unbound at 18 h, 5 µM [14] | blood plasma ratio at 0.5 h, 10 µM [15] | remaining at 18 h, 5 µM [17] [%] | hepatocyte CLint at 1 µM [18] [µL/min/1e6 cells] | hepatocyte CLint at 1 µM [19] [µL/min/1e6 cells] | Papp A→B at 2 h, 1 µM [20] [×10⁻⁶ cm/s] | fraction unbound at 18 h, 5 µM [21] | fraction unbound at 18 h, 5 µM [22] | SMILES | further results |
| --- | --- | --- | --- | --- | --- | --- | --- | --- | --- | --- | --- | --- | --- | --- | --- | --- | --- | --- | --- | --- | --- |
| 0.6 | 5.2 | 0.003 | < 0.001 | 293 (≈ 358 µM) | 11 | 5 | 1.2 | 0.7 | 10 | 82 | < 0.001 | < 0.001 | 0.6 | 72 | ≤ 1 | 3 | < 0.3 | 0.003 | – | CCc1cc(N2C(=S)N(c3ccc(C#N)c(C(F)(F)F)c3)C(=O)C2(C)C)ccc1OCCN1CCN(CC(=O)Nc2cccc(NC3CCC(=O)NC3=O)c2)[C@H](C)C1 (stereo partly drawn) | solubility at 24 h [10]: 0.3 µg/mL (≈ 0.366 µM); solubility at 24 h [16]: 16 µg/mL (≈ 19.5 µM) |
| 0.7 | 3.7 | 0.014 | 0.002 | – | 5 | 10 | 1.2 | 1.1 | 5 | 43 | 0.016 | < 0.007 | 0.8 | 7 | 8 | 3 | < 0.3 | 0.007 | 0.005 | CNC(=O)COc1cc2cc(Nc3nc(N4CCC(O[C@H]5C[C@H](N6CCC(c7ccc8c(c7F)CN(C7CCC(=O)NC7=O)C8=O)CC6)C5)CC4)ncc3Cl)ccc2n(C(C)C)c1=O (stereo partly drawn) | – |
| 0.8 | 5.3 | 0.003 | 0.003 | 3.8 (≈ 4.7 µM) | 2 | 4 | 0.3 | 0.7 | 4 | 68 | 0.01 | < 0.004 | 0.5 | 74 | < 1 | < 1 | < 0.1 | – | 0.002 | COc1cc(O[C@H]2C(C)(C)[C@H](NC(=O)c3ccc(N4CCC(CN5CCN(c6ccc(C(=O)N[C@H]7CCC(=O)NC7=O)c(F)c6)CC5)CC4)cc3)C2(C)C)ccc1C#N [LUXDEGALUTAMIDE] | solubility at 24 h [10]: 0.4 µg/mL (≈ 0.495 µM); solubility at 24 h [16]: 188 µg/mL (≈ 233 µM) |
| 0.5 | 5.1 | 0.001 | < 0.001 | – | 5 | 6 | < 0.1 | 0.6 | 8 | 90 | 0.003 | < 0.004 | 0.8 | 78 | 4 | < 1 | < 0.1 | < 0.002 | < 0.001 | NC(=O)c1ncc(N2CCCCC2)nc1Nc1ccc(C2CCN(C[C@@H]3CCN(c4ccc5c(c4)C(=O)N(C4CCC(=O)NC4=O)C5=O)C3)CC2)cc1 (stereo partly drawn) | – |

The next lines start with the molecule.

| SMILES | blood plasma ratio at 0.5 h, 10 µM [1] | chromatographic logD [2] | fraction unbound at 18 h, 5 µM [3] | fraction unbound at 18 h, 5 µM [4] | solubility at 24 h [5] [µg/mL] | hepatocyte CLint at 1 µM [6] [µL/min/1e6 cells] | hepatocyte CLint at 1 µM [7] [µL/min/1e6 cells] | Papp A→B at 2 h, 1 µM [8] [×10⁻⁶ cm/s] | blood plasma ratio at 0.5 h, 10 µM [9] | hepatocyte CLint at 1 µM [11] [µL/min/1e6 cells] | recovery at 18 h, 5 µM [12] [%] | fraction unbound at 18 h, 5 µM [13] | fraction unbound at 18 h, 5 µM [14] | blood plasma ratio at 0.5 h, 10 µM [15] | remaining at 18 h, 5 µM [17] [%] | hepatocyte CLint at 1 µM [18] [µL/min/1e6 cells] | hepatocyte CLint at 1 µM [19] [µL/min/1e6 cells] | Papp A→B at 2 h, 1 µM [20] [×10⁻⁶ cm/s] | fraction unbound at 18 h, 5 µM [21] | fraction unbound at 18 h, 5 µM [22] | further results |
| --- | --- | --- | --- | --- | --- | --- | --- | --- | --- | --- | --- | --- | --- | --- | --- | --- | --- | --- | --- | --- | --- |
| COc1cc(-c2cn(C)c(=O)c3cnc(N4CCC4)cc23)cc(OC)c1CN1CCC(CN2CCC3(CC2)CN(c2ccc4c(c2)C(=O)N([C@H]2CCC(=O)NC2=O)C4)C3)CC1 | 2.4 | 1.9 | 0.265 | 0.41 | – | < 1 | 3 | 0.1 | 1.3 | 5 | 65 | 0.35 | 0.29 | 2.7 | 84 | 5 | < 1 | < 0.1 | 0.427 | 0.232 | – |
| N#Cc1ccc(O[C@H]2CC[C@H](NC(=O)c3ccc(N4CCC(CN5CCN(c6cc7c(cc6F)C(=O)N([C@H]6CCC(=O)NC6=O)C7=O)CC5)CC4)nn3)CC2)cc1Cl | 0.6 | 5.1 | – | – | 192 (≈ 236 µM) | < 1 | 5 | 0.1 | 0.7 | 3 | 14 | 0.008 | < 0.001 | 0.7 | 1 | < 1 | 2 | < 0.1 | – | < 0.001 | solubility at 24 h [10]: 1.6 µg/mL (≈ 1.97 µM); solubility at 24 h [16]: 230 µg/mL (≈ 283 µM) |
| Cn1c(=O)n([C@H]2CCC(=O)NC2=O)c2cccc(C#CCOC3CCN(C[C@H]4CC[C@H](n5cc(NC(=O)c6cnn7ccc(N8C[C@H]9C[C@@H]8CO9)nc67)c(C(F)F)n5)CC4)CC3)c21 | – | 2.4 | – | 0.026 | 33 (≈ 38.1 µM) | 11 | 10 | 5.3 | – | 11 | 56 | 0.069 | 0.022 | – | 68 | 4 | 3 | 2.4 | 0.035 | 0.008 | solubility at 24 h [10]: 1.6 µg/mL (≈ 1.85 µM); solubility at 24 h [16]: 4.1 µg/mL (≈ 4.73 µM) |
| O=C1CC[C@H](N2Cc3cc(N4CCN(CC5CCN(c6ccc([C@@H]7c8ccc(O)cc8CC[C@@H]7c7ccccc7)cc6)CC5)CC4)ccc3C2=O)C(=O)N1 [VEPDEGESTRANT] | 0.5 | 5.7 | < 0.001 | < 0.001 | 274 (≈ 378 µM) | 9 | 5 | < 0.1 | 0.6 | 23 | 77 | < 0.001 | < 0.003 | 0.7 | 77 | 3 | 3 | < 0.1 | < 0.002 | < 0.001 | solubility at 24 h [10]: 2.6 µg/mL (≈ 3.59 µM); solubility at 24 h [16]: 230 µg/mL (≈ 318 µM) |
| Cc1ncsc1-c1ccc([C@H](C)NC(=O)[C@@H]2C[C@@H](O)CN2C(=O)[C@@H](NC(=O)CCCCCC(=O)N2CCN(CC[C@H](CSc3ccccc3)Nc3ccc(S(=O)(=O)NC(=O)c4ccc(N5CCN(CC6=C(c7ccc(Cl)cc7)CCC(C)(C)C6)CC5)cc4)cc3S(=O)(=O)C(F)(F)F)CC2)C(C)(C)C)cc1 [DT-2216] | 0.8 | 7.3 | – | – | – | 3 | ≤ 1 | – | 0.7 | < 1 | 91 | < 0.001 | < 0.003 | 0.9 | 92 | < 1 | 3 | – | – | – | – |
| CN1CCN([C@@H]2CCCN(c3cnc(C(N)=O)c(Nc4ccc(C5CCN(CC6CCN(c7ccc(C(=O)N[C@H]8CCC(=O)NC8=O)nc7)CC6)CC5)cc4)n3)C2)C1=O [NX-5948] | 2.6 | 2.2 | 0.073 | 0.067 | 51 (≈ 63.2 µM) | 3 | 16 | 8.7 | 1.1 | 4 | 40 | 0.178 | 0.024 | 1 | 43 | 3 | 5 | 2.8 | 0.094 | 0.024 | solubility at 24 h [10]: 2.5 µg/mL (≈ 3.1 µM); solubility at 24 h [16]: 559 µg/mL (≈ 693 µM) |
